Counter-ions that a name gives are not always drawn. One block for each compound: values may come before it.
Experiments:
[1] = target: T1, excitatory amino acid transporters (SLC1A6, EAAT4) (Rattus norvegicus, UniProt O35921); assay: EAAT4 cis-inhibition of glutamate uptake in stably transfected HEK 293 cells; format: cell-based; conditions: for potency estimated from few doses: HEK293, read-out: Ki estimated from one concentration
T1 sequence (O35921 1-561): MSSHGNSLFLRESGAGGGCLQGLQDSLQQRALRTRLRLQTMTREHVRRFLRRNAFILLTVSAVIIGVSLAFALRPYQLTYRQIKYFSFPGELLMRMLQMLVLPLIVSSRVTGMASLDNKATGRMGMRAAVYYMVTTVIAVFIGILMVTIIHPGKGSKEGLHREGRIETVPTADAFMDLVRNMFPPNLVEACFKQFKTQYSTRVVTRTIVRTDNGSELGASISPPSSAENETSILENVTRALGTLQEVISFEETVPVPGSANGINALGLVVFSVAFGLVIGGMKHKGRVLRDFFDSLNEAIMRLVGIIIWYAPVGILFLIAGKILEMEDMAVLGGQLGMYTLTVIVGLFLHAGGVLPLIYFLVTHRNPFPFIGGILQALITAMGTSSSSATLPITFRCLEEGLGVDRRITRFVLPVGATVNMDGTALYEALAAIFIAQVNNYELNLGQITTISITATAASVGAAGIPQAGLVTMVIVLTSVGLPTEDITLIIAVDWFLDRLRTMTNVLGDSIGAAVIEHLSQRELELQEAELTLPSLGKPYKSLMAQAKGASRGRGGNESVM

[2] = target: T2, human organic cation/carnitine transporter (SLC22A5, OCTN2) (Homo sapiens, UniProt O76082); assay: OCTN2 cis-inhibition of L-carnitine uptake in OCTN2-MDCK cells; format: cell-based; conditions: for potency estimated from few doses: read-out: Ki estimated from one concentration
T2 sequence (O76082 1-557): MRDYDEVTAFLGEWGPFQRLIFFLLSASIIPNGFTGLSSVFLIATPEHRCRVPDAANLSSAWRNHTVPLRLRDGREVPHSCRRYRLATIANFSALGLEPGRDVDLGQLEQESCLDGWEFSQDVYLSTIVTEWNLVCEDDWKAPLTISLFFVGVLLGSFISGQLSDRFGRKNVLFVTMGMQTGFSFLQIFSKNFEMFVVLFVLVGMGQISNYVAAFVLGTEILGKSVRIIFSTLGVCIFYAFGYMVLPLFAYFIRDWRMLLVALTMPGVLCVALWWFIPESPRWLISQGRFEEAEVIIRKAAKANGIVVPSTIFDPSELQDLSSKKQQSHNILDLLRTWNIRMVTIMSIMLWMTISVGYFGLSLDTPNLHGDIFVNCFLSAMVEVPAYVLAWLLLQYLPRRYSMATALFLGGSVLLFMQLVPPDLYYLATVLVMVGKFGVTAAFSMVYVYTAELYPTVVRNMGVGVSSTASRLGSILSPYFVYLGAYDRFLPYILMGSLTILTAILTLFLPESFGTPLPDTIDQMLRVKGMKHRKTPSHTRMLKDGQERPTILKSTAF

[3] = target: T3, OCTN2 (Homo sapiens, UniProt O76082); assay: L-carnitine uptake study; format: cell-based; conditions: substrate uptake studies
T3 sequence (O76082 1-557): T2 sequence (O76082 1-557)

[4] = target: EAAT4 (Rattus norvegicus, UniProt O35921); conditions: substrate uptake studies
[5] = Precipitation / solubility of inhibitor in transport buffer; format: physicochemical; conditions: for precipitation / solubility in donor solution: ASBT inhibition study, 1-[…] DMSO for low water soluble compounds; for highest concentration at which no precipitation was observed: transport buffer of the ASBT inhibition study, precipitation observed above it
[6] = target: T4, human apical sodium-dependent transporter (SLC10A2, ASBT) (Homo sapiens, UniProt Q12908); assay: ASBT cis-inhibition of taurocholate uptake in ASBT-MDCK cells; conditions: for Ki: mean±S.E.
T4 sequence (Q12908 1-348): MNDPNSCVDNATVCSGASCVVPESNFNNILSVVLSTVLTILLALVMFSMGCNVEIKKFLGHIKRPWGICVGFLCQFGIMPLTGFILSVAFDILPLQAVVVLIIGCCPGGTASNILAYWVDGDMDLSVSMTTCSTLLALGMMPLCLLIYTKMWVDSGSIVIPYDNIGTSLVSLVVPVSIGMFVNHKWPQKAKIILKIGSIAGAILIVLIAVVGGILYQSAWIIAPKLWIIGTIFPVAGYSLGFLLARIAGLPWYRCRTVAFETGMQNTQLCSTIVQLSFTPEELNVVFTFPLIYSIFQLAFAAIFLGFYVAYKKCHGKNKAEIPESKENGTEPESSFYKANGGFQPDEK

[7] = target: T4, human apical sodium-dependent transporter (SLC10A2, ASBT); conditions: 50 µM
[8] = target: ASBT (Homo sapiens, UniProt Q12908); conditions: substrate uptake studies
[9] = Ki, inhibitor concentration range 0-5 μM
[10] = Ki, inhibitor concentration range 0-10 μM
[11] = Ki, inhibitor concentration range 0-20 μM
[12] = Ki, inhibitor concentration range 0-50 μM
[13] = Ki, inhibitor concentration range 0-100 μM
[14] = Ki, inhibitor concentration range 0-200 μM
[15] = Reference Ki, from the comprehensive inhibition profile
[16] = Ki, inhibitor concentration range 0-[…]
[17] = Ki, inhibitor concentration range 0-500 μM

potency estimated from few doses [1]: 8.4 ± 0.81 µM
Ki [1, 9]: 9.06 ± 1.51 µM
Ki [1, 10]: 8.72 ± 0.76 µM
Ki [1, 11]: 8.58 ± 0.59 µM
Ki [1, 12]: 8.95 ± 0.57 µM
Ki [1, 13]: 9.21 ± 0.57 µM
Ki [1, 14]: 9.54 ± 0.75 µM
Ki [1, 15]: 9.54 µM
Structure (SMILES): N[C@H](CC(=O)O)C(=O)O [D-Aspartic acid]

Ki ([2]; Ki, inhibitor concentration range 0-1 μM): 8.9 ± 4 µM
Ki [2, 9]: 10.2 ± 1.1 µM
Ki [2, 10]: 11.5 ± 0.9 µM
Ki [2, 11]: 11.8 ± 0.7 µM
Ki [2, 12]: 12 ± 0.6 µM
Ki [2, 13]: 12.1 ± 0.5 µM
Ki [2, 14]: 12.2 ± 0.5 µM
Ki [2, 16]: 9 ± 1.5 µM
Ki [2, 15]: 12.2 µM
potency estimated from few doses [2]: 12.2 ± 0.5 µM
Structure (SMILES): C[N+](C)(C)C[C@@H](O)CC(=O)[O-] [D-carnitine]

Structure (SMILES): COc1cccc2c1C(=O)c1c(O)c3c(c(O)c1C2=O)C[C@@](O)(C(C)=O)C[C@@H]3O[C@H]1C[C@H](N)[C@H](O)[C@H](C)O1 [Daunorubicin hydrochloride, daunorubicin hydrochloride]
Ki [2, 13]: 424 ± 122 µM
Ki [2, 14]: 375 ± 63 µM
Ki [2, 17]: 443 ± 56 µM
Ki ([2]; Ki, inhibitor concentration range 0-1000 μM): 484 ± 48 µM
Ki ([2]; Ki, inhibitor concentration range 0-1500 μM): 496 ± 41 µM
Ki [2, 15]: 496 µM
potency estimated from few doses [2]: 488 ± 47 µM

potency estimated from few doses [1]: 3.03 ± 0.3 µM
Ki [1, 9]: 1.72 ± 0.14 µM
Ki [1, 10]: 1.77 ± 0.12 µM
Ki [1, 11]: 1.83 ± 0.14 µM
Ki [1, 12]: 1.88 ± 0.18 µM
Ki [1, 13]: 1.92 ± 0.23 µM
Ki [1, 16]: 2.01 ± 0.13 µM
Ki [1, 15]: 1.92 µM
Structure (SMILES): N[C@@H](CC(=O)O)C(=O)O [L-Aspartic acid]

Kt (Michaelis-Menten constant for transporter mediated transport) [3]: 5.33 µM
Structure (SMILES): C[N+](C)(C)C[C@H](O)CC(=O)[O-] [L-carnitine]

Ki [2, 10]: 14.9 ± 2 µM
Ki [2, 11]: 14.5 ± 1.2 µM
Ki [2, 12]: 14.6 ± 1.5 µM
Ki [2, 13]: 15.7 ± 1.6 µM
Ki [2, 14]: 15.9 ± 1.5 µM
Ki [2, 17]: 15.9 ± 1.4 µM
Ki [2, 15]: 15.9 µM
potency estimated from few doses [2]: 14.7 ± 3.1 µM
Structure (SMILES): CC[C@]1(O)C[C@H]2CN(CCc3c([nH]c4ccccc34)[C@@](C(=O)OC)(c3cc4c(cc3OC)N(C=O)[C@H]3[C@@](O)(C(=O)OC)[C@H](OC(C)=O)[C@]5(CC)C=CCN6CC[C@]43[C@@H]65)C2)C1 [Vincristine sulfate]

Structure (SMILES): N[C@@H](CCC(=O)O)C(=O)O [glumatate, glutamate]
Kt (Michaelis-Menten constant for transporter mediated transport) [4]: 2.02 µM

highest concentration at which no precipitation was observed [5]: 50 µM
Ki ([6]; inhibitor concentration range 0-50 μM): 43.9 µM
inhibition [7]: 39.7%
Structure (SMILES): CCOC(=O)C1=C(C)NC(C)=C(C(=O)OC)C1c1cccc([N+](=O)[O-])c1 (stereo not shown) [nitrendipine]
precipitation / solubility in donor solution [5]: incomplete solubility at higher drug concentrations

Structure (SMILES): C[C@H](CCC(=O)NCCS(=O)(=O)O)[C@H]1CC[C@H]2[C@@H]3[C@H](O)C[C@@H]4C[C@H](O)CC[C@]4(C)[C@H]3C[C@H](O)[C@]12C [taurocholate]
Kt (Michaelis-Menten constant for transporter mediated transport) [8]: 5.03 µM

highest concentration at which no precipitation was observed [5]: 1000 µM
Ki ([6]; inhibitor concentration range 0-1000 μM): 460 µM
inhibition at 1000 µM ([6]; read-out: percent taurocholate inhibited at the highest inhibitor concentration): 58.4%
Structure (SMILES): Cc1cccc(Nc2ccncc2S(=O)(=O)NC(=O)NC(C)C)c1 [torsemide]
precipitation / solubility in donor solution [5]: incomplete solubility at higher drug concentrations

From paper PMC2909451 (European journal of pharmaceutical sciences : official …, 2010)
